Reference: paper PMC3927586, “Protein kinase C-delta inactivation inhibits the proliferation and survival of cancer stem cells in culture and in vivo” (BMC Cancer, 2014)

Key:
[1] = Drug-like properties: hydrophobicity; type: physicochemical
[2] = tested on: MCF7 cells; test: Cell proliferation (MTT) of adherent MCF7 cells; type: cell-based, human; conditions: for concentration at which effect on cell number reached significance: MCF7, MTT, 24 hr, p ≤ 0.02; for concentration required to repress growth by more than 80%: MCF7 adherent population, MTT
Description: Cell proliferation was assessed using an MTT [3-(4,5-dimethylthiazol-2-yl)-2,5-diphenyltetrazolium bromide] assay (Roche, Mannheim, Germany). The number of viable cells growing in a single well on a 96-well microtiter plate was estimated by adding 10 μl of MTT solution (5 mg/ml in phosphate-buffered saline [PBS]). After 4 h of incubation at 37°C, the stain was diluted with 100 μl of dimethyl sulfoxide. The optical densities were quantified at a test wavelength of 570 nm and a reference wavelength of 690 nm on a multiwell spectrophotometer. In some assays, MTS was used as substrate (Promega, Madison, WI), and the absorbance of the product was monitored at 490 nm. Cell enumeration was carried out using a hemocytometer, and viable cells identified by trypan blue exclusion.
Figure 4 Effects of PKCδ inhibitors on human tumor cell spheroid formation. (A) Hs578T and MCF7 were plated under adherent or non-adherent conditions. Tumor spheroids and adherent cells were collected at 96 hr, stained for CD24 and CD44, and analyzed by flow cytometry. (B) Hs578T, MCF7, breast cancer stem cells (BCSC) and pancreatic cancer stem cells (PCSC) were plated in tumor spheroid media, in the presence of rottlerin, BJE6-106, or DMSO (Control). Tumor spheroids were enumerated at 96 hr, and normalized to the number of spheroids in the control cultures (assigned an arbitrary value of 100%). p values for comparison between vehicle and rottlerin or BJE6-106 effects were significant (p≤0.001). Photographs are of representative areas of the culture plates. (C) MCF7 cells were exposed BJE6-106 or to rottlerin at the indicated concentrations. The corresponding equivalent volume of solvent (DMSO) was used as a vehicle control (Vehicle). After 24, 48 and 72 hr of exposure, cell mass was evaluated by MTT assay. Control values were normalized to 100%. p values for comparison between vehicle and rottlerin effects on cell number at 24 hr reached significance at 5 μM, and for BJE6-106 at 0.5 μM (p ≤ 0.02), and were significant for all concentrations tested at 48 and 72 hr time points. (D) Hs578T cells were exposed to vehicle or BJE6-106 (1 μM) for 6, 12, 24, 48 or 96 hr. Viable cells were enumerated and re-plated in media without BJE6-206, and spheroid numbers were quantitated 96 hr later. p values for comparison between vehicle and BJE6-106 effects on spheroid number were significant after 6 hr of exposure (p≤0.02), and remained significant at all time points thereafter. Error bars represent SEM.

[3] = tested on: SBcl2; test: Tumor spheroid growth, SBcl2 melanoma; type: cell-based, human; conditions: p < 0.001
Description: (§1) Tumor self-renewing and anchorage-independent spheroids were obtained by culturing breast cancer cells MCF7, Hs587T and MDA231; melanoma cells SBcl2 and FM6; human breast cancer stem cells and pancreatic cancer stem cells in stem cell-selective conditions according to the manufacturer’s instructions (StemCell Technologies, Tukwila, WA). Briefly, cancer and cancer stem cells were propagated in 6-well ultra-low adherent plates (Corning) in Complete MammoCult Medium (Human) by adding 50 mL of MammoCult Proliferation Supplements to 450 mL of MammoCult Basal Medium (StemCell Technologies). The following were added to obtain Complete MammoCult Medium: 4 ug/mL Heparin (StemCell Technologies), 0.48 μg/mL hydrocortisone (StemCell Technologies), 200 U penicillin/ml; and 200 μg streptomycin/ml (Invitrogen).

[4] = tested on: Panc1; test: Tumor spheroid growth, Panc1 pancreatic cancer; type: cell-based, human; conditions: p < 0.001
[5] = tested on: MCF7 spheroids; test: Tumor spheroid formation, MCF7; type: cell-based; conditions: Homo sapiens, 96 hr, read-out: inhibition of growth of MCF7 spheroids
Description: as §1
Figure 4 Effects of PKCδ inhibitors on human tumor cell spheroid formation. […] Tumor spheroids and adherent cells were collected at 96 hr, stained for CD24 and CD44, and analyzed by flow cytometry. […] After 24, 48 and 72 hr of exposure, cell mass was evaluated by MTT assay. […] Viable cells were enumerated and re-plated in media without BJE6-206, and spheroid numbers were quantitated 96 hr later. p values for comparison between vehicle and BJE6-106 effects on spheroid number were significant after 6 hr of exposure (p≤0.02), and remained significant at all time points thereafter. […]

[6] = tested on: cells with aberrant Ras signaling; set-up: method as in PMID 24506253; conditions: cited from earlier work
[7] = tested on: PCSC; test: Clonogenic assay with washout; type: cell-based, human; conditions: rottlerin 10 μM, colonies at 15 days
Description: 100,000 cells were seeded on 100 mm dishes with 10 ml media per dish. On day 4, cells were treated with a PKCδ inhibitor or vehicle control for either 6, 18, 24 or 48 hours. Cells were trypsinized; counted via the trypan blue exclusion method in order to determine the number of live cells in the sample, and 300 live cells were seeded in triplicate onto 6-well plates. Cells were monitored for appropriate colony size and re-fed every three to four days. At Day 15, cells were stained with ethidium bromide and counted using UVP LabWorks software (Waltham, MA).
Figure 2 Effects of PKCδ inhibitors on human cancer stem cells. (A) PCSC and PrCSC cells at 80% confluence were exposed to rottlerin. DMSO served as vehicle control (Vehicle). After 24 and 72 hr of exposure, cell mass was evaluated by MTT assay. Control values were normalized to 100%. p values for comparison between treatments reached significance at 24 hr of exposure (p≤0.01) for both cell types, and remained significant at 72 hr. […] Cytotoxicity was evaluated by LDH-release assay. […] Viable cells were enumerated and re-plated in media without inhibitor, and colony numbers were quantitated 15 days later. p values for comparison of treatment effects on clonogenic capacity reached significance (p=0.005) at 18 hr of exposure and remained significant for all subsequent exposure times. […]

[8] = tested on: normal primary cells or cell lines; conditions: at the concentrations employed herein; cited from earlier work
[9] = mice; cited from earlier work

Row | SMILES | hydrophobicity [1] | concentration at which effect on cell number reached significance [2] | concentration required to repress growth by more than 80% [2] | inhibition of tumor spheroid growth, SBcl2 ([3]; BJE6-106 at 0.5-1.0 μM) | inhibition of tumor spheroid growth, Panc1 ([4]; BJE6-106 at 0.5-1.0 μM) | inhibition at 1 µM ([5]; BJE6-106 at 1 μM) | concentrations producing cytotoxic activity against cells with aberrant Ras signaling [6] | decrease of clonogenic capacity of PCSC ([7]; 18 hr exposure then washout) | reduction of clonogenic potential of PCSC ([7]; 48 hr exposure then washout) | cytostatic or cytotoxic effect on normal primary cells or cell lines [8] | inhibition at 10 µM ([3]; Homo sapiens, SBcl2, rottlerin at 10 μM) | inhibition at 10 µM ([4]; Homo sapiens, PANC-1, rottlerin at 10 μM) | inhibition at 10 µM ([5]; rottlerin at 10 μM) | tolerability when administered orally or intraperitoneally [9]
1 | CC1(C)C=Cc2cc(CCn3c4ccccc4c4ccccc43)cc(C=O)c2O1 [BJE6-106, 6-(2-(9H-carbazol-9-yl)ethyl)-2,2-dimethyl-2H-chromene-8-carbaldehyde] | highly hydrophobic | 0.5 µM | > 1 µM | > 99.5% | > 99% | > 90% | nM concentrations | – | – | – | – | – | – | –
2 | CC(=O)c1c(O)c(C)c(O)c(Cc2c(O)c3c(c(C(=O)/C=C/c4ccccc4)c2O)OC(C)(C)C=C3)c1O [rottlerin, Rottlerin, reference compound] | – | 5 µM | > 10 µM | – | – | – | – | 40% | more than 90% | not cytostatic or cytotoxic | > 99.5% | > 99% | > 90% | well-tolerated
